Measured values: BindingDB's records for doi:10.1111/cbdd.12375 (Ferdowsi University of Mashhad, 2015)

Biological target: T1, Seed linoleate 13S-lipoxygenase-1 (Glycine max, UniProt P08170)
T1 sequence (P08170 whole entry): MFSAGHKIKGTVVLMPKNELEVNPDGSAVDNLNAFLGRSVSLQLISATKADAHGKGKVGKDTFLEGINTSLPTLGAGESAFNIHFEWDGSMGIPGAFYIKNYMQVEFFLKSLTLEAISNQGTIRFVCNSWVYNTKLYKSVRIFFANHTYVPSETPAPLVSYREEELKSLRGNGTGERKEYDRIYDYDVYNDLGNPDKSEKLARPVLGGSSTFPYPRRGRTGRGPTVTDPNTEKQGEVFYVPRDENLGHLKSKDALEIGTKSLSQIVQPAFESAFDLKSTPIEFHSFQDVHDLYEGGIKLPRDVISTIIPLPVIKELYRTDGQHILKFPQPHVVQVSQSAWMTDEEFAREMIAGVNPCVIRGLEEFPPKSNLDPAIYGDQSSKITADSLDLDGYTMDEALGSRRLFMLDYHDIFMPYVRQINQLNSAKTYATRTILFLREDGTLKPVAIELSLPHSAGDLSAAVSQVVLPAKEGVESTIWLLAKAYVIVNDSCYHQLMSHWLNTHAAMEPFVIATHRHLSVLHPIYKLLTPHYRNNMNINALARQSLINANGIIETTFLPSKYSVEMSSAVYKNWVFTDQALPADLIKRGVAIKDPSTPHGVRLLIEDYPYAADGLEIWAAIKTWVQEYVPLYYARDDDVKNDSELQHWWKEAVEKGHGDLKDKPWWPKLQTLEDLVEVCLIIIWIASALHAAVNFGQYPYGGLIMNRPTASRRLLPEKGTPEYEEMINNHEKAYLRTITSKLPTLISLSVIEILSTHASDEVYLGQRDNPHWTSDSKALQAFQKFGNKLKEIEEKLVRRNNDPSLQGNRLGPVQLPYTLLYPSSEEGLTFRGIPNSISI
Experiment: 15LO Inhibition Assay
Conditions: pH 7; 25 °C
Method: Linoleic acid and two assay solutions (A and B) were prepared in advance. Solution A was 50 mM 3-(dimethylamino)benzoic acid (DMAB) in a 100 mM phosphate buffer (pH 7.0). Solution B was a mixture of 10 mM 3-methyl-2-benzothiazolinone (MBTH) 3 mL, hemoglobin (5 mg/mL, 3 mL) in 50 mM phosphate buffer at pH 5.0 (25 mL). A linoleic acid solution was prepared by mixing 5 mg of linoleic acid with 50 mg Tween-20 in 3 mL water and then diluting with KOH 100 mM to a final volume of 5 mL. In the standard assay, the sample in ethanol ([…]), soybean 15-lipo-oxygenase (SLO) (4000 units/mL in 50 mM phosphate buffer pH 7.0; […]) and phosphate buffer pH 7.0 (50 mM; […]) were mixed in a test-tube, and preincubation was carried out for 5 min at room temperature. A control test was done with the same volume of ethanol. After the preincubation, linoleic acid solution […] was added to start the peroxidation reaction, and 7 min later,solution A […] and then solution B […] was added to

Structure (SMILES) | IC50
CCN1CCN(c2nc(C)c(Br)c(Sc3nnc(Sc4nc(N5CCN(CC)CC5)nc(C)c4Br)n3N)n2)CC1 [3,5-bis((5-bromo-6-methyl-2-(4-ethylpiperazin-1-yl)pyrimidin-4-yl)thio)-4H-1,2,4-triazol-4-amine (4f)] | 12 µM
Cc1nc(N2CCN(C)CC2)nc(Sc2nnc(Sc3nc(N4CCN(C)CC4)nc(C)c3Br)n2N)c1Br [3,5-bis((5-bromo-6-methyl-2-(4-methylpiperazin-1-yl)pyrimidin-4-yl)thio)-4H-1,2,4-triazol-4-amine (4d)] | 9 µM
Cc1nc(N2CCN(c3ccccc3)CC2)nc(Sc2nnc(Sc3nc(N4CCN(c5ccccc5)CC4)nc(C)c3Br)n2N)c1Br [3,5-bis((5-bromo-6-methyl-2-(4-phenylpiperazin-1-yl)pyrimidin-4-yl)thio)-4H-1,2,4-triazol-4-amine (4e)] | > 500 µM
Cc1nc(N2CCCCC2)nc(Sc2nnc(Sc3nc(N4CCCCC4)nc(C)c3Br)n2N)c1Br [3,5-bis((5-bromo-6-methyl-2-(piperidin-1-yl)pyrimidin-4-yl)thio)-4H-1,2,4-triazol-4-amine (4b)] | > 500 µM
Cc1nc(N2CCCC2)nc(Sc2nnc(Sc3nc(N4CCCC4)nc(C)c3Br)n2N)c1Br [3,5-bis((5-bromo-6-methyl-2-(pyrrolidin-1-yl)pyrimidin-4-yl)thio)-4H-1,2,4-triazol-4-amine (4g)] | > 500 µM

Further lines, results first:

IC50 | Structure (SMILES)
> 500 µM | Cc1nc(N2CCC(C)CC2)nc(Sc2nnc(Sc3nc(N4CCC(C)CC4)nc(C)c3Br)n2N)c1Br [3,5-bis((5-bromo-6-methyl-2-(4-methylpiperidin-1-yl)pyrimidin-4-yl)thio)-4H-1,2,4-triazol-4-amine (4c)]
> 500 µM | Cc1nc(N2CCOCC2)nc(Sc2nnc(Sc3nc(N4CCOCC4)nc(C)c3Br)n2N)c1Br [3,5-bis((5-bromo-6-methyl-2-morpholinopyrimidin-4-yl)thio)-4H-1,2,4-triazol-4-amine (4a)]
